Assay results published in US20100221763A1, “Specific Acceptors for Transferases to Saccharides and Method for Obtaining and Using Same” (Health Research, Inc, priority 2005, published 2010).

Columns and labels:
[1] = tested on: α1,2-L-FT of colon tumor CC9338; experiment: α1,2-L-FT assay, colon tumor extract; format: biochemical, human; settings: 1 mg protein of the tissue extract
Method: Colon tumor tissue (CC9338) and breast tumor tissue (BC9400) were obtained during surgical procedures at Roswell Park Cancer Institute and stored frozen within 1 h at −70° C. The tissues were homogenized at 4° C. with 4 volumes of 0.1M Tris Maleate […] 0.1% NaN3 using kinematica. After adjusting the concentration of Triton X-100 to 2%, these homogenates were mixed in the cold room for 1 h using Speci-Mix (Thermolyne) and then centrifuged at 20,000 g for 1 h at 4° C. The clear fat-free supernatant was stored frozen at −20° C. until use. Aliquots of 10 μL from this extract were used in assays run in duplicates. Glycosyltransferase activity in cell lysate was determined by mixing the lysates with acceptor and radiolabeled donor (monosaccharide) under the reaction conditions detailed below, followed by separation of un-reacted donor from the radioactive product using anionic or hydrophobic chromatography. In all cases, the radioactive content of isolated products was determined by using 3a70 scintillation cocktail (Research Products International, Mount Prospect, Ill.) and a Beckman LS6500 scintillation counter. Controls for each assay contained the reaction mixture with everything except the acceptor. All assays were run in duplicate.
α1,2, α1,6-, α1,3- and α1,4-fucosyltransferase (FT) assay reactions were carried out for 2 h in a reaction mixture containing 50 mM Hepes buffer (pH 7.5), 5 mM MnCl2, 7 mM ATP, 3 mM NaN3, 3 mM synthetic acceptor or 40 μg of fetuin-based acceptor, 0.05 μCi GDP-[14C]Fuc (290 mCi/mmol) and 10 μl cell extract in a total volume of 20 μl [Chandrasekaran et al., 1996]. Sulfotransferase (Sulfo T) assay reactions took 2 h and required a mixture containing 100 mM Tris-maleate (pH 7.2), 5 mM Mg Acetate, 5 mM ATP, 10 mM NaF, 10 mM BAL, 7.5 mM acceptor, 0.5 μCi of [^35S]PAPS (specific activity 2.4 Ci/mmol) and 10 μl of cell extract in a total volume of 30 μl [Chandrasekaran et al., 2004].
Dowex-1-C1 or Sep-Pak C18 cartridges were used to isolate radiolabeled product from the reaction mixture. For GalT, GalNAc-T and FT assays, the incubation mixture was diluted with 1 ml water and passed through a 1 ml Dowex-1-C1 column [Chandrasekaran et al., 1996; Chandrasekaran et al., 2001]. The column was washed twice with 1 ml of water. The breakthrough and the water wash contained the [^14C]-galactosylated or [^14C]-fucosylated products formed with neutral acceptors. 3 ml of 0.1M NaCl was used to obtain [^14C]-fucosylated products from sialylated acceptors after water elution. For sialytransferase assays, the radioactive products from benzylglycosides were separated by hydrophobic chromatography on Sep-Pak C18 cartridge (Waters, Milford, Mass.), and elution of the product was done with 3 ml methanol [Palcic et al., 1988]. […]

[2] = target: T1, Rat recombinant α2,6(N)ST (Rattus norvegicus, UniProt P13721); experiment: Sialyltransferase assay with cloned α2,6(N)ST; format: biochemical; settings: Table I; acceptor 7.5 mM; 100% = 43500 CPM (Galβ1,4GlcNAcβ-O—Al)
T1 construct: purchased Calbiochem
T1 sequence (P13721 1-403): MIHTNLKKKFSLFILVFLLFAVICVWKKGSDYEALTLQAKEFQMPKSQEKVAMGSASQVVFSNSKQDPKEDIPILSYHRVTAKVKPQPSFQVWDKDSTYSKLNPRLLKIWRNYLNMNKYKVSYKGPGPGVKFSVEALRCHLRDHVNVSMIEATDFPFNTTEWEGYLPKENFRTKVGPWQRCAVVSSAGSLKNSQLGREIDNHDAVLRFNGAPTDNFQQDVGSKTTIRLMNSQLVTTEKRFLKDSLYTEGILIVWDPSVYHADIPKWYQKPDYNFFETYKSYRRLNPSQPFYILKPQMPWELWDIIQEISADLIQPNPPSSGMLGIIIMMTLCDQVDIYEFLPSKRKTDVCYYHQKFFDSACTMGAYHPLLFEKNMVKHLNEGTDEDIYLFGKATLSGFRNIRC

Compound | α1,2-L-FT activity: incorporation of radioactive sugar [1] [CPM × 10^−3] | Sialyltransferase activity (%) Cloned α2,6(N)ST [2] [%]
CO[C@H]1O[C@H](CO)[C@H](O)[C@H](O[C@@H]2O[C@H](CO)[C@H](O)[C@H](O[C@@H]3O[C@H](C)[C@H](O)[C@H](O)[C@H]3O)[C@H]2NC(C)=O)[C@H]1O [D-Fucβ1,3GalNAcβ1,3Galα-O-Me] | 89.8 | 2.5
CO[C@H]1[C@H](O[C@H]2[C@H](O)[C@@H](NC(C)=O)C(O)O[C@@H]2CO)O[C@H](CO)[C@H](O)[C@@H]1O (some centres unmarked) [2-O-MeGalβ1,4GlcNAc] |  | 90.1
CO[C@H]1[C@H](O[C@H]2[C@H](O)[C@@H](CO)OC(O)[C@@H]2NC(C)=O)O[C@H](CO)[C@H](O)[C@@H]1O (some centres unmarked) [2-O-MeGalβ1,3GlcNAc] |  | 3.7
CO[C@H]1O[C@H](CO)[C@H](O)[C@H](O[C@@H]2O[C@H](CO)[C@H](O)[C@H](O[C@@H]3O[C@H](CO)[C@H](O)[C@H](O)[C@H]3O)[C@H]2NC(C)=O)[C@H]1O [Galβ1,3GalNAcβ1,3Galα-O-Me] | 49.1 | 1.1
C=CCO[C@H]1O[C@H](CO)[C@H](O)[C@H](O[C@@H]2O[C@H](CO)[C@H](O)[C@H](O)[C@H]2O)[C@H]1NC(C)=O [Galβ1,3GalNAcα-O—Al] | 36.8 | 0.2
